Series [1] is described as follows: Compound stability in rat liver microsomes. It is filed as in vitro ADME. To be noted: pH 7.4; for CLint scaled at 5 μM: liver microsomes, in vivo CLint extrapolated from rat liver microsome incubation; for half-life at 5 μM: rat liver microsomes 0.5 mg protein/mL, compound 5 μM, NADPH, 37° C., read-out: Rat T1/2. As for the experimental part:
(§1) Human or rat liver microsomes incubations were conducted in duplicate in polypropylene tubes. The typical incubation mixtures consisted of human or rat liver microsomes (0.5 mg protein/mL), compounds of interest (5 μM) and NADPH (1.0 mM) in a total volume of 200 μL potassium phosphate buffer (PBS, 100 mM, pH 7.4). Compounds were dissolved in DMSO and diluted with PBS such that the final concentration of DMSO was 0.05%. The enzymatic reactions were commenced with the addition of protein after a 3-min preincubation and incubated in a water bath open to the air at 37° C. Reactions were terminated at various time points (0, 5, 10, 15, 30, 60 min) by adding equal volume of ice-cold acetonitrile. The samples were stored at −80° C. until LC/MS/MS assays.
(§2) The concentrations of compounds in the incubation mixtures of human or rat liver microsomes were determined by a LC/MS/MS method. The ranges of the linearity in the concentration range were determined for each tested compounds.
(§3) A parallel incubation was performed using denatured microsomes as the negative control, and reactions were terminated at various time points (0, 15, 60 min) after incubation at 37° C.
(§4) Dextromethorphan (70 μM) was selected as the positive control, and reactions were terminated at various time points (0, 5, 10, 15, 30, 60 min) after incubation at 37° C. Both positive and negative control samples were included in each assay to ensure the integrity of the microsomal incubation system.
(§5) The concentrations of compounds in human or rat liver microsome incubations were plotted as a percentage of the relevant zero time point control for each reaction.

Series [2] can be described thus: Compound stability in human liver microsomes. It is filed as in vitro ADME. To be noted: pH 7.4; for CLint scaled at 5 μM: liver microsomes, in vivo CLint extrapolated from human liver microsome incubation; for half-life at 5 μM: human liver microsomes 0.5 mg protein/mL, compound 5 μM, NADPH, 37° C., read-out: Human T1/2. How it is done:
as §1, §2, §3, §4, §5

The CLint scaled is a measure of how fast metabolising enzymes remove a compound, apart from limits set by blood flow.

Turning to `Cc1nc(-c2c(N)ncnc2N[C@@H](C)c2nc3cccc(C#CC(C)O)c3c(=O)n2-c2ccccc2)no1` (stereo partly drawn) [Example 6, 2-((S)-1-((6-amino-5-(5-methyl-1,2,4-oxadiazol-3-yl)pyrimidin-4-yl)amino)ethyl)-5-(3-hydroxybut-1-yn-1-yl)-3-phenylquinazolin-4(3H)-one], in series [1], the CLint scaled at 5 μM is 41.6 mL/min/kg and the half-life at 5 μM came to 59.7 min. In series [2], the CLint scaled at 5 μM is 24.2 mL/min/kg and the half-life at 5 μM was determined as 71.9 min.
The corresponding values for `CC(O)C#Cc1cccc2nc([C@H](C)Nc3ncnc(N)c3-c3nnn(C)n3)n(-c3ccccc3)c(=O)c12` (stereo partly drawn) [Example 8, 2-((S)-1-((6-amino-5-(2-methyl-2H-tetrazol-5-yl)pyrimidin-4-yl)amino)ethyl)-5-(3-hydroxybut-1-yn-1-yl)-3-phenylquinazolin-4(3H)-one] are 32.9 mL/min/kg, 75.4 min, 15.7 mL/min/kg and 111 min.
In the same order, the values of `CC#Cc1cccc2nc([C@H](C)Nc3ncnc(N)c3-c3noc(C)n3)n(-c3ccccc3)c(=O)c12` [Example 11, (S)-2-(1-((6-amino-5-(5-methyl-1,2,4-oxadiazol-3-yl)pyrimidin-4-yl)amino)ethyl)-3-phenyl-5-(prop-1-yn-1-yl)quinazolin-4(3H)-one] are 97.4 mL/min/kg, 25.5 min, 63 mL/min/kg and 27.6 min.
In the same order, the values of `CC#Cc1cccc2nc([C@H](C)Nc3ncnc(N)c3-c3nnn(C)n3)n(-c3ccccc3)c(=O)c12` [Example 12, (S)-2-(1-((6-amino-5-(2-methyl-2H-tetrazol-5-yl)pyrimidin-4-yl)amino)ethyl)-3-phenyl-5-(prop-1-yn-1-yl)quinazolin-4(3H)-one] are 70.9 mL/min/kg, 35 min, 98 mL/min/kg and 17.7 min.
For the compound `CC#Cc1cccc2nc([C@H](CC)Nc3ncnc(N)c3-c3nnc(C)o3)n(C3CC3)c(=O)c12` [Example 27, (S)-2-(1-((6-amino-5-(5-methyl-1,3,4-oxadiazol-2-yl)pyrimidin-4-yl)amino)propyl)-3-cyclopropyl-5-(prop-1-yn-1-yl)quinazolin-4(3H)-one], the results for the CLint scaled at 5 μM in series [1] and in series [2] were 91 mL/min/kg and 105 mL/min/kg, respectively. Further, the half-life at 5 μM in series [1] turned out to be 27.3 min; in series [2], 16.6 min.
The corresponding values for `Cc1noc(-c2c(N)ncnc2N[C@@H](C)c2nc3cccc(C#CCO)c3c(=O)n2C2CC2)n1` [Example 30, (S)-2-(1-((6-amino-5-(3-methyl-1,2,4-oxadiazol-5-yl)pyrimidin-4-yl)amino)ethyl)-3-cyclopropyl-5-(3-hydroxyprop-1-yn-1-yl)quinazolin-4(3H)-one] are 22.1 mL/min/kg, 26.2 mL/min/kg, 112 min and 66.4 min.
In the same order, the values of `C[C@H](Nc1ncnc(N)c1-c1nnn(C)n1)c1nc2cccc(C#CCO)c2c(=O)n1-c1ccccc1` [Example 39, (S)-2-(1-((6-amino-5-(2-methyl-2H-tetrazol-5-yl)pyrimidin-4-yl)amino)ethyl)-5-(3-hydroxyprop-1-yn-1-yl)-3-phenylquinazolin-4(3H)-one] are 43 mL/min/kg, 28.9 mL/min/kg, 57.7 min and 60.2 min.
The corresponding values for `C#Cc1cccc2nc([C@H](C)Nc3ncnc(N)c3-c3nc(C)no3)n(C3CC3)c(=O)c12` [Example 43, (S)-2-(1-((6-amino-5-(3-methyl-1,2,4-oxadiazol-5-yl)pyrimidin-4-1)amino)ethyl)-3-cyclopropyl-5-ethynylquinazolin-4(3H)-one] are 111 mL/min/kg, 105 mL/min/kg, 22.3 min and 16.6 min.
For `C#Cc1cccc2nc([C@H](C)Nc3ncnc(N)c3-c3nc(C)no3)n(-c3ccccc3)c(=O)c12` [Example 44, (S)-2-(1-((6-amino-5-(3-methyl-1,2,4-oxadiazol-5-yl)pyrimidin-4-yl)amino)ethyl)-5-ethynyl-3-phenylquinazolin-4(3H)-one], in series [1], the CLint scaled at 5 μM is 169 mL/min/kg and the half-life at 5 μM was 14.7 min. For the same compound, in series [2], the CLint scaled at 5 μM was 297 mL/min/kg and the half-life at 5 μM worked out at 5.85 min.
The corresponding values for `C#Cc1cccc2nc([C@H](C)Nc3ncnc(N)c3-c3nnc(C)o3)n(-c3ccccc3)c(=O)c12` [Example 45, (S)-2-(1-((6-amino-5-(5-methyl-1,3,4-oxadiazol-2-yl)pyrimidin-4-yl)amino)ethyl)-5-ethynyl-3-phenylquinazolin-4(3H)-one] are 87.2 mL/min/kg, 28.5 min, 301 mL/min/kg and 5.77 min.
For `C[C@H](Nc1ncnc(N)c1-c1ncn(C)n1)c1nc2cccc(C#CCO)c2c(=O)n1-c1ccccc1` [Example 46, (S)-2-(1-((6-amino-5-(1-methyl-1H-1,2,4-triazol-3-yl)pyrimidin-4-yl)amino)ethyl)-5-(3-hydroxyprop-1-yn-1-yl)-3-phenylquinazolin-4(3H)-one], in series [1], the CLint scaled at 5 μM is 60.8 mL/min/kg and the half-life at 5 μM came out at 40.8 min. In series [2], the intrinsic clearance (CLint scaled) at 5 μM is 49.2 mL/min/kg and the half-life at 5 μM is 35.3 min.
In the same order, the values of `C#Cc1cccc2nc([C@H](C)Nc3ncnc(N)c3-c3noc(C)n3)n(-c3ccccc3)c(=O)c12` [Example 47, (S)-2-(1-((6-amino-5-(5-methyl-1,2,4-oxadiazol-3-yl)pyrimidin-4-yl)amino)ethyl)-5-ethynyl-3-phenylquinazolin-4(3H)-one] are 140 mL/min/kg, 17.8 min, 287 mL/min/kg and 6.05 min.
For `C#Cc1cccc2nc([C@H](C)Nc3ncnc(N)c3-c3nnn(C)n3)n(-c3ccccc3)c(=O)c12` [Example 48, (S)-2-(1-((6-amino-5-(2-methyl-2H-tetrazol-5-yl)pyrimidin-4-yl)amino)ethyl)-5-ethynyl-3-phenylquinazolin-4(3H)-one], in series [1], the CLint scaled at 5 μM was 172 mL/min/kg and the half-life at 5 μM turned out to be 14.5 min. In series [2], the CLint scaled at 5 μM was 311 mL/min/kg and the half-life at 5 μM is 5.6 min.
In the same order, the values of `C#Cc1cccc2nc([C@H](C)Nc3ncnc(N)c3-c3ncn(C)n3)n(-c3ccccc3)c(=O)c12` [Example 49, (S)-2-(1-((6-amino-5-(1-methyl-1H-1,2,4-triazol-3-yl)pyrimidin-4-yl)amino)ethyl)-5-ethynyl-3-phenylquinazolin-4(3H)-one] are 107 mL/min/kg, 23.2 min, 259 mL/min/kg and 6.7 min.
In the same order, the values of `C#Cc1cccc2nc([C@H](C)Nc3ncnc(N)c3-c3nnc(C)o3)n(C3CC3)c(=O)c12` [Example 50, (S)-2-(1-((6-amino-5-(5-methyl-1,3 4-oxadiazol-2-yl)pyrimidin-4-yl)amino)ethyl)-3-cyclopropyl-5-ethynylquinazolin-4(3H)-one] are 34.8 mL/min/kg, 71.4 min, 47.7 mL/min/kg and 36.5 min.
In the same order, the values of `C#Cc1cccc2nc([C@H](C)Nc3ncnc(N)c3-c3noc(C)n3)n(C3CC3)c(=O)c12` [Example 51, (S)-2-(1-((6-amino-5-(5-methyl-1,2,4-oxadiazol-3-yl)pyrimidin-4-yl)amino)ethyl)-3-cyclopropyl-5-ethynylquinazolin-4(3H)-one] are 133 mL/min/kg, 18.7 min, 118 mL/min/kg and 14.8 min.
On to `C#Cc1cccc2nc([C@H](C)Nc3ncnc(N)c3-c3ncn(C)n3)n(C3CC3)c(=O)c12` [Example 53, (S)-2-(1-((6-amino-5-(1-methyl-1H-1,2,4-triazol-3-yl)pyrimidin-4-yl)amino)ethyl)-3-cyclopropyl-5-ethynylquinazolin-4(3H)-one], for which the CLint scaled at 5 μM in series [1] was 70.9 mL/min/kg; in series [2], 74.5 mL/min/kg. Besides, the half-life at 5 μM is 35 min in series [1] and 23.4 min in series [2].

Source of the values: patent US10751339B2, “Substituted aminopyrimidine compounds and methods of use” (SUNSHINE LAKE PHARMA CO., LTD., priority 2018, dated 2020).
